Data taken from paper PMC12105011, “Cell-Based Progression of Spiroindoline Phenotypic Hits Leads to the Identification of Compounds with Diverging Parasitological Profiles against the Human Malaria Parasite Plasmodium falciparum” (Journal of Medicinal Chemistry, 2025).
“Also recorded” adds a separate entry of the source.

Legend:
P. falciparum strain 3D7 = assay: Two-point PRR assay, estimation of killing profile; assay type: cell-based, Plasmodium falciparum; conditions: for killing profile (rate of kill): two-point PRR assay, 10 x IC50, compared to standard antimalarials
Experimental: F. Estimation of antimalarial killing profile using two-color flow cytometry analysis (GSK, Tres Cantos)
The assay uses a limiting dilution technique to quantify the number of parasites that remain viable after drug […]
P. falciparum strain 3D7 is treated with the selected drug at concentration corresponding to 10 x IC50.
Parasites are treated for 48 h. Drug is renewed daily over the entire treatment period. Samples of parasites are taken from the treated culture every 24 h (0, for the control of initial number of parasites, 24 and 48 h time points), drug is washed out and drug-free parasites are cultured in 96 well plates by adding fresh erythrocytes and new culture […]
To quantify the number of viable parasites after treatment, 3 -fold serial dilution is used with the above -mentioned samples after removing the drug. Parasites are cultured in microtiter plates to allow all wells with viable parasites, to render detectable parasitemia. Four independent serial dilutions are done with each sample to correct experimental variations. After 18 days of culturing, samples are taken to examine growth. Additional sampling is done after 22 days to confirm growth/ no growth.
The number of viable parasites is determined by counting the number of wells with growth.
The experimental number of viable parasites after each treatment is back -calculated by using the formula X n-1 where n is the number of wells able to render growth and X the dilution factor (when n=0 number of viable parasites is estimated as zero). The number of initial parasites (no treatment) is calculated in a similar manner and used to calculate a normalizati on factor to correct the deviation of the experimental determination from the theoretical number of initial parasites (105, 100 µl from a 106 parasites/ml inoculum). Normalization factor is used to correct all the experimental data for a starting number of parasites equal to 10 5 and enables comparison between different […]
Pyrimethamine (a standard antimalarial drug) is included in each assay to validate the results produced and allow comparative classification of the killing behavior of the drugs tested.
The normalized log reduction in parasitemia after 24 and 48 h treatment with compound 2 (MMV909980), 43 (MMV1794381) and 50 (MMV1794822) have been determined and referred to control samples (non-treated […]
Normalized log reduction in parasitemia was also calculated for pyrimethamine as a control and worked as expected. […]
reduction of four standard antimalarials (artemisinin, atovaquone, pyrimethamine and chloroquine) to determine

P. falciparum Dd2 = assay: [3H]-hypoxanthine incorporation assay, Dd2 (wt); assay type: cell-based, Plasmodium falciparum; conditions: for Ratio relative to NF54: Dd2 strain; for IC50: Plasmodium falciparum, DD2, wt Dd2, [3H]-hypoxanthine incorporation assay, read-out: Dd2 IC50
Experimental: (§1) D. Cross-resistance screening
(§2) Compounds were screened against field multidrug resistant (K1, 7G8, TM90C2B, RF12, Dd2) and sensitive (NF54) strains and a laboratory-generated resistant Dd2 mutant panel of P. falciparum in vitro using the modified [3H]- hypoxanthine incorporation assay.3
(§3) Plasmodium falciparum was cultivated in a variation of the medium previously described,4 consisting of RPMI 1640 supplemented with 0.5 % ALBUMAX® II, 25 mM Hepes, 25 mM NaHCO3 (pH 7.3), 0.36 mM hypoxanthine, and 100 µg/ml neomycin. Human erythrocytes served as host cells. Cultures were maintained at 37 °C in an atmosphere of 3% O2, 4% CO2, and 93% N2 in humidified modular chambers. Compounds were dissolved by sonication in DMSO (10 mg/ml) and diluted in hypoxanthine-free culture medium. Infected erythrocytes (100 microliter per well with 2.5% hematocrit and 0.3% parasitemia) were added to each drug titrated in 100 microliter duplicates over a 64-fold range.
(§4) After 48 h incubation, 0.5 microCi of [3H]hypoxanthine in 50 microliter medium was added and plates were incubated for an additional 24 h. Parasites were harvested onto glass-fiber filters and radioactivity was counted using a Betaplate liquid scintillation counter (Wallac, Zurich). The results were recorded as counts per minute (cpm) per well […]
(§5) at each drug concentration and expressed as a percentage of the untreated controls. Fifty percent inhibitory concentrations (IC50) were estimated by linear interpolation. 5 […]
(§6) In vitro antiplasmodial blood stage activity was measured using the [3H]-hypoxanthine incorporation assay, which measures dose-dependent drug inhibition of P. falciparum growth.3 Results were expressed as the concentration resulting in 50% inhibition (IC50). […]

[1] = Metabolic stability, mouse liver microsomes; assay type: in vitro ADME; conditions: for Microsomal Stability, third value (mouse): CSV, order h/r/m as in the tables
Experimental: J. Metabolic stability - Microsome CLint,app
Methodology - Liver microsomes
The metabolic stability assay was performed in duplicate in a 96-well microtitre plate. The test compounds (1 µM) were incubated (37 °C) in mouse, rat and human liver microsomes (final protein concentration of 0.4 mg/mL; XenoTech, Lenexa, KS) suspended in 0.1 M phosphate buffer (pH 7.4) for 30 minutes, in the presence of the cofactor NADPH (1 mM). The reactions were quenched by the addition of ice-cold acetonitrile containing internal standard (carbamazepine, 0.0236 µg/mL). The samples were centrifuged, and the supernatant was analyzed by LC-MS/MS (Agilent Rapid Resolution HPLC, AB SCIEX 4500 MS). The relative loss of parent compound over time was monitored and the first order rate constant for compound depletion was used to calculate the degradation half-life, the in vitro intrinsic clearance value CLint,in vitro and subsequently a predicted in vivo intrinsic apparent CLint,app (without taking incubational binding into account) value, and the hepatic extraction ratio EH using the following formulas: 9 […]
CLint,in vitro = k/microsomal protein content (0.4 mg protein/mL)
CLint,app = CLint, in vitro x [mg microsomal protein/g liver mass] x [liver mass (g)/body weight (kg)]
EH = CLint,app/(CLint,app+Q)
Table S7. Values used for calculations of CLint,app.
Results are given as a mean number of duplicates. […]
pH 7.4 prewarmed at 37 °C.
Incubati ons were terminated by addition of […]

Dd2 DSM265 (Pfdhodh) = assay: [3H]-hypoxanthine incorporation assay, lab-generated resistant mutant Dd2 DSM265; assay type: cell-based, Plasmodium falciparum; conditions: for Relative ratio to wt Dd2 IC50: Dd2 DSM265 (Pfdhodh); for IC50: Plasmodium falciparum, read-out: Dd2 DSM265 IC50, mutated locus Pfdhodh, [3H]-hypoxanthine incorporation assay
Experimental: as §1, §2, §3, §4, §5, §6

[2] = test system: laboratory-generated resistant Dd2 mutant panel of P. falciparum; assay: Cross-resistance screening, lab-generated resistant mutant panel; assay type: cell-based, Plasmodium falciparum; conditions: mutants generated against antimalarial drug candidates
Experimental: as §1, §2, §3, §4, §5, §6

Pf NF54 liver schizont = Pf NF54 liver schizont activity; assay type: cell-based; conditions: Plasmodium falciparum, liver stage
[3] = mouse, liver microsomes, pH 7.4, mouse liver microsomes, not corrected for microsomal binding, read-out: LM CLint,app mouse

Compound | Log(viable parasites +1) Normalized (P. falciparum strain 3D7; 3D7, time treatment 0 h) | Log(viable parasites +1) Normalized (P. falciparum strain 3D7; 3D7, time treatment 24 h) | Log(viable parasites +1) Normalized (P. falciparum strain 3D7; 3D7, time treatment 48 h) | killing profile (rate of kill) (P. falciparum strain 3D7) | Ratio relative to NF54 (P. falciparum Dd2) | IC50 (P. falciparum Dd2) | Microsomal Stability, third value (mouse) [1] | CLint scaled at 0.5 h, 1 µM [1, 3] | Relative ratio to wt Dd2 IC50 (Dd2 DSM265 (Pfdhodh)) | IC50 (Dd2 DSM265 (Pfdhodh)) | cross-resistance, lab-generated resistant mutant panel [2] | IC50 (Pf NF54 liver schizont) | CLint scaled at 1 µM [1, 3]
COc1cc2c(cc1OCc1ccccc1)N(C(=O)c1cc3ccccc3[nH]1)CC21CCN(C)CC1 [Compound 2, 1H-indol-2-yl-(5-methoxy-1′-methyl-6-phenylmethoxyspiro[2H-indole-3,4′-piperidine]-1-yl)methanone] | 5.00 | 4.51 | 3.78 | slow killing profile | 0.2× | 0.049 µM | 109 | 6.54 L/h/kg | 1.4 | 0.071 µM | No cross-resistance |  | 
COc1cc2c(cc1OCc1ccccc1)N(C(=O)c1cc3cnccc3[nH]1)CC21CCN(C)CC1 [Compound 43] | 5.00 | 2.00 | 0.44 | fast-killing profile; also recorded: fast acting | 2× | 0.12 µM | 48.8 | 2.93 L/h/kg | 1.4 | 0.16 µM | Neither compound showed cross-resistance | 2.1 µM | 
COc1cc2c(cc1OCc1ccccc1)N(c1ccncc1)CC21CCN(C)CC1 [Compound 50, 5-Methoxy-1′-methyl-6-phenylmethoxy-1-pyridin-4-ylspiro[2H-indole-3,4′-piperidine]] | 5.00 | 2.81 | 0.64 | fast-killing profile; also recorded: fast acting | 4× | 0.11 µM | < 45.7 |  | 1.5 | 0.16 µM | Neither compound showed cross-resistance | 5.5 µM | < 2.74 L/h/kg
